Measurements from patent publication US6455550B1, “N-alkanoylphenylalanine derivatives” (Hoffmann-La Roche Inc., priority 1997, dated 2002).
Like-named read-outs stand apart in the source and are kept apart here.

Legend:
[1] = target: T1, VLA-4 (α4β1 integrin) binding to immobilized VCAM-1 (Homo sapiens, UniProt P05556+P13612); test: VLA-4/VCAM-1 Screening Assay (solid-phase, dual antibody ELISA)
T1 construct: followed by 10 μl of Ramos cell-derived VLA-4; endogenous in cells; host or cells: Ramos cells (VLA-4 preparation derived from the cells)
Method in brief: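 Recombinant human VCAM-1 is coated onto plates and Ramos cell-derived VLA-4 is added with compound (final DMSO 5%) in Tris buffer pH 7.4 with 1 mM MnCl2 and 1 mg/mL BSA, 2 hr at 37° C. Bound VLA-4 is detected by anti-β1 antibody, HRP anti-mouse IgG and K-Blue colorimetry. Results are % inhibition of total binding.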

[2] = target: T2, cell-surface VLA-4 (α4β1 integrin) on Ramos cells binding to immobilized VCAM-1 (Homo sapiens, UniProt P05556+P13612); test: Ramos (VLA-4)/VCAM-1 Cell-Based Screening Assay (cell adhesion); settings: for inhibition at 0.01 µM: Conc. 10 nM, Ramos cell adhesion to VCAM-1
T2 construct: Ramos cells bearing cell-surface VLA-4; endogenous in cells; host or cells: Ramos cells (VLA-4); VCAM-1 purified from CHO cell culture media
From the text: Calcein-AM was purchased from Molecular Probes Inc.
VLA-4 (α4β1 integrin) antagonist activity, defined as ability to compete with cell-surface VLA-4 for binding to immobilized VCAM-1, was quantitated using a Ramos-VCAM-1 cell adhesion assay. Ramos cells bearing cell-surface VLA-4, were labeled with a fluorescent dye (Calcein-AM) and allowed to bind VCAM-1 in the presence or absence of test compounds.
Initially, this entailed coating 96 well plates (Nunc Maxisorp) with recombinant human VCAM-1 (100 ng in 100 μl PBS), sealing each plate and allowing the plates to stand at 4° C for Å18 hr. The VCAM-coated plates were subsequently washed twice with 0.05% Tween-20 in PBS, and then blocked for 1hr (room temperature) with 200 μl of Blocking Buffer (1% BSA/0.02% thimerosal) to reduce non-specific binding. Following the incubation with Blocking Buffer, plates were inverted, blotted and the remaining buffer aspirated. Each plate was then washed with 300 μl PBS, inverted and the remaining PBS aspirated.
Test compounds were dissolved in 100% DMSO and then diluted 1:25 in VCAM Cell Adhesion Assay Buffer (4 mM CaCl2, 4 mM MgCl2 in 50 mM TRIS-HCl, pH 7.5) (final DMSO=4%). […] 100 μl/well of each dilution was added to the VCAM-coated plates, followed by 100 μl of Ramos cells (200,000 cells/well in 1% BSA/PBS). […] Plates were inverted to remove non-adherent cells, blotted and 300 μl/well PBS added. Plates were again inverted, blotted and the remaining buffer gently aspirated. 100 μl Lysis Buffer (0.1% SDS in 50 mM TRIS-HCl, pH 8.5) was added to each well and agitated for 2 min on a rotary shaking platform.

[3] = Ramos cell-derived VLA-4, recombinant human VCAM-1 coated plates, 2 hr at 37° C., read-out: IC50
[4] = IC50 in Ramos Cell Based Assay (nM), Calcein-AM labeled Ramos cells, VCAM-1 coated plates, 45 min at room temperature
[5] = IC50 nM, Ramos cell-derived VLA-4, recombinant human VCAM-1 coated plates, 2 hr at 37° C.
[6] = Calcein-AM labeled Ramos cells, VCAM-1 coated plates, 45 min at room temperature, read-out: IC50 in Ramos Cell Based Assay

T1 sequence (P13612 34-1032): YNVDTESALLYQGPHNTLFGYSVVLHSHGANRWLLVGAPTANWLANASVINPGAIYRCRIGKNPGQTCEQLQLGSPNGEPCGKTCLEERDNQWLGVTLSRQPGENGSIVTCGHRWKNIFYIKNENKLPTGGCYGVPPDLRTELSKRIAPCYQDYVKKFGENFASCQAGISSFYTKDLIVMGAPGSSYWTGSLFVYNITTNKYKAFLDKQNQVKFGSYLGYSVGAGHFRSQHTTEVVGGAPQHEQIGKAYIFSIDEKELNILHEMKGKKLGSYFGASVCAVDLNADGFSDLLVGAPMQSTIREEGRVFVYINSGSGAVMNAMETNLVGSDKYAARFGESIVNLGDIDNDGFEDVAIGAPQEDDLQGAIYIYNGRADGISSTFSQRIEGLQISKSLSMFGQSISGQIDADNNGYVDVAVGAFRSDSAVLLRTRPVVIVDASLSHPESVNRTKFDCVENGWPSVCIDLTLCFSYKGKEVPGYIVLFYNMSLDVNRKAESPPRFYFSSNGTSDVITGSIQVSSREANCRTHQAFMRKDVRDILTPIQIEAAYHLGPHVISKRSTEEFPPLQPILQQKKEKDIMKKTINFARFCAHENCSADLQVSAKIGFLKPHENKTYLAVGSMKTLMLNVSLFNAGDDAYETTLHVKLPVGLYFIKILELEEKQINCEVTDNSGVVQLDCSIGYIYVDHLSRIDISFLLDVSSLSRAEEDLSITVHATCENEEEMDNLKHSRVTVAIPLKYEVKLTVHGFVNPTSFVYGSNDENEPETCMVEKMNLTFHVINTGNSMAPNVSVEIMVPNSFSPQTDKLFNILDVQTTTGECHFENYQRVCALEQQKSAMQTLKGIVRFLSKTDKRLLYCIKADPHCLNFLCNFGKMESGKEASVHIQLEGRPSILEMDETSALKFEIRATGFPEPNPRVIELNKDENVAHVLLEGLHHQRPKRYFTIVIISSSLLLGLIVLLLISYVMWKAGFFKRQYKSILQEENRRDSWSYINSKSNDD
T1 sequence (P05556 21-798): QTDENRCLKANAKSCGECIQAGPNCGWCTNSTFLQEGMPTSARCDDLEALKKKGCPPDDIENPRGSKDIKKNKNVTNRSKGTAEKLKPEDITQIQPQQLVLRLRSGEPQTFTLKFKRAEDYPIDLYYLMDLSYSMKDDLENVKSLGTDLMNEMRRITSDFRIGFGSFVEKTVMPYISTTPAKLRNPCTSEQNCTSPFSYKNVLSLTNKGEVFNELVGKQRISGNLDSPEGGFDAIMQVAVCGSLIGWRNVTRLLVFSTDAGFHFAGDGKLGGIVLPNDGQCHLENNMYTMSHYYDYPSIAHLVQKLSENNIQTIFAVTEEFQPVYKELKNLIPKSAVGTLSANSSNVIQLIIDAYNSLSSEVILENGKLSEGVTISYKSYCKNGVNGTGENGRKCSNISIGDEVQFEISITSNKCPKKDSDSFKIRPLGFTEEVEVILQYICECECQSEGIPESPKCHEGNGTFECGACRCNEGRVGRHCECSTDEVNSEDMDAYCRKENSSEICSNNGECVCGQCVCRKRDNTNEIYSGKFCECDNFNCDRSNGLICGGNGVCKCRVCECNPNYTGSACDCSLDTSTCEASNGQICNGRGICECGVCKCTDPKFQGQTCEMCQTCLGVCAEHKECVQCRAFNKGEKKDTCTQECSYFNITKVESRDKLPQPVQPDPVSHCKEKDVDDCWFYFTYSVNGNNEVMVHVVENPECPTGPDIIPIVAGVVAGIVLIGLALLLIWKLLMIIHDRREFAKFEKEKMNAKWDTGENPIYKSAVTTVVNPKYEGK
T2 sequence (P13612 34-1032): as the sequence (P13612 34-1032) above
T2 sequence (P05556 21-798): as the sequence (P05556 21-798) above

| IC50 [1, 3] [nM] | IC50 [2, 6] [nM] | SMILES | IC50 [2, 4] [nM] | IC50 [1, 5] [nM] | further results |
| --- | --- | --- | --- | --- | --- |
| – | – | CC(=O)NCCCCC1(C(=O)N[C@@H](Cc2ccc(NC(=O)c3c(Cl)cccc3Cl)cc2)C(=O)O)CCCC1 [Example 259] | 129 | 3.6 | – |
| – | – | O=C(Nc1ccc(C[C@H](NC(=O)C2(CCN3CCOCC3)CCCC2)C(=O)O)cc1)c1c(Cl)cccc1Cl [Example 256] | 151 | 2.4 | – |
| – | – | Cn1nnnc1-c1ccc(CC2(C(=O)N[C@@H](Cc3ccc(NC(=O)c4c(Cl)cccc4Cl)cc3)C(=O)O)CCC2)cc1 [Example 57] | 27 | 0.42 | – |
| – | – | CCCCC1(C(=O)N[C@@H](Cc2ccc(NC(=O)c3c(Cl)cccc3Cl)cc2)C(=O)O)CCCC1 [Example 270] | 150 | 1.1 | – |
| – | – | CSCCC1(C(=O)N[C@@H](Cc2ccc(NC(=O)c3c(Cl)cccc3Cl)cc2)C(=O)O)CCCC1 [Example 249] | 62 | 0.29 | – |
| – | – | C/N=C(\S)NCCC1(C(=O)N[C@@H](Cc2ccc(NC(=O)c3c(Cl)cccc3Cl)cc2)C(=O)O)CCCC1 [Example 192] | 22 | 0.14 | – |
| 0.69 | 34.5 | COc1ccc(CC2(C(=O)N[C@@H](Cc3ccc(NC(=O)c4c(Cl)cccc4Cl)cc3)C(=O)O)CCCC2)cc1 [Example 95] | – | – | – |
| 1.2 | 23 | COCC(=O)NCCC1(C(=O)N[C@@H](Cc2ccc(NC(=O)c3c(Cl)cccc3Cl)cc2)C(=O)O)CCCC1 [Example 162] | – | – | – |
| 2.4 | 85 | COC(=O)CCC(=O)NCCC1(C(=O)N[C@@H](Cc2ccc(NC(=O)c3c(Cl)cccc3Cl)cc2)C(=O)O)CCCC1 [Example 163] | – | – | – |
| 0.63 | 36.5 | COc1ccc(CC2(C(=O)N[C@@H](Cc3ccc(NC(=O)c4c(Cl)cccc4Cl)cc3)C(=O)O)CCCC2)cc1 [Example 43, 4-[[(2,6-Dichlorophenyl)carbonyl]amino]-N-[[1-[(4-methoxyphenyl)methyl]cyclopentyl]carbonyl]-L-phenylalanine] | – | – | – |
| – | – | O=C(NCCC1(C(=O)N[C@@H](Cc2ccc(NC(=O)c3c(Cl)cccc3Cl)cc2)C(=O)O)CCCC1)c1ccncc1 [Example 160] | – | – | IC50 [1]: 5.8 nM; IC50 [2]: 328 nM |
| 0.26 | 54.5 | Cc1cc([N+](=O)[O-])ccc1C(=O)Nc1ccc(C[C@H](NC(=O)C2(C)CC2(Cl)Cl)C(=O)O)cc1 (some centres unmarked) [Example 100] | – | – | – |
| – | – | O=C(NCCC1(C(=O)N[C@@H](Cc2ccc(NC(=O)c3c(Cl)cccc3Cl)cc2)C(=O)O)CCCC1)c1cccc(C(F)(F)F)c1 [Example 258] | 1030 | 14 | – |
| – | – | NCCC1(C(=O)N[C@@H](Cc2ccc(NC(=O)c3c(Cl)cccc3Cl)cc2)C(=O)O)CCCC1 [Example 252] | 228 | 5.1 | – |
| 0.94 | 31.5 | Cn1nnnc1-c1cccc(CC2(C(=O)N[C@@H](Cc3ccc(NC(=O)c4c(Cl)cccc4Cl)cc3)C(=O)O)CCC2)c1 [Example 56] | – | – | – |
| – | – | CCCC(=O)N1C(Cc2cccnc2)C(=O)N(c2ccc(CC(NC(=O)C3(CCNC(C)=O)CCCC3)C(=O)O)cc2)C1c1ccc(Cl)cc1 (centres unmarked) [Example 304] | – | – | inhibition at 0.01 µM [2]: 35% |
| 2 | 360 | CC(C)(C)OC(=O)NCCC1(C(=O)N[C@@H](Cc2ccc(NC(=O)c3c(Cl)cccc3Cl)cc2)C(=O)O)CCCC1 [Example 254] | – | – | – |
| – | – | COc1ccc(C(=O)NCCC2(C(=O)N[C@@H](Cc3ccc(NC(=O)c4c(Cl)cccc4Cl)cc3)C(=O)O)CCCC2)cc1 [Example 257] | 635 | 40 | – |
| – | 5 | CS(=O)(=O)CCCCC1(C(=O)N[C@@H](Cc2ccc(NC(=O)c3c(Cl)cccc3Cl)cc2)C(=O)O)CCCC1 [Example 263] | – | – | – |
| – | – | CC(=O)NCCC1(C(=O)NC(Cc2ccc(N3C(=O)C(Cc4cccnc4)N(C(C)=O)C3c3ccc(Cl)cc3)cc2)C(=O)O)CCCC1 (centres unmarked) [Example 303] | – | – | inhibition at 0.01 µM [2]: 70% |
| – | 650 | O=C(NCCC1(C(=O)N[C@@H](Cc2ccc(NC(=O)c3c(Cl)cccc3Cl)cc2)C(=O)O)CCCC1)Nc1ccccc1[N+](=O)[O-] [Example 190] | – | – | – |
| – | 24 | COc1ccc(C[C@@H]2C(=O)N(c3ccc(C[C@H](NC(=O)C4(CCNC(C)=O)CCCC4)C(=O)O)cc3)C(c3ccc(Cl)cc3)N2C(C)=O)cc1 (single isomer, unassigned) [Example 286] | – | – | – |
| 0.26 | 5.7 | CNC(=O)NCCC1(C(=O)N[C@@H](Cc2ccc(NC(=O)c3c(Cl)cccc3Cl)cc2)C(=O)O)CCCC1 [Example 187, 4-[[(2,6-Dichlorophenyl)carbonyl]amino]-N-[[1-[2-[[(methylamino)carbonyl]amino]ethyl]cyclopentyl]carbonyl]-L-phenylalanine] | – | – | – |
| – | 13 | CC(=O)NCCC1(C(=O)N[C@@H](Cc2ccc(N3C(=O)[C@@H](C)N(C(C)=O)C3c3ccc(Cl)cc3)cc2)C(=O)O)CCCC1 (mixture of isomers) [Example 350] | – | – | – |
| 6.4 | 313 | O=C(Nc1ccc(C[C@H](NC(=O)C2(CCNC(=O)C3CCCN3C(=O)C(F)(F)F)CCCC2)C(=O)O)cc1)c1c(Cl)cccc1Cl (some centres unmarked) [Example 159] | – | – | – |
| – | – | O=C(Nc1ccc(C[C@H](NC(=O)C2(CCCCO)CCCC2)C(=O)O)cc1)c1c(Cl)cccc1Cl [Example 255] | 27 | 0.5 | – |
| – | – | CCCC(=O)N1C(Cc2cccnc2)C(=O)N(c2ccc(CC(NC(=O)C3(CCNC(C)=O)CCCC3)C(=O)O)cc2)C1c1ccccc1 (centres unmarked) [Example 300] | – | – | inhibition at 0.01 µM [2]: 32% |
| – | – | CC(=O)NCCC1(C(=O)NC(Cc2ccc(N3C(=O)C(Cc4ccccc4)N(C(C)=O)C3c3ccc(Cl)cc3)cc2)C(=O)O)CCCC1 (single isomer, unassigned) [Example 319] | – | – | inhibition at 0.01 µM [2]: 68% |
| – | – | CC(=O)NCCC1(C(=O)NC(Cc2ccc(N3C(=O)C(Cc4ccccc4)N(C(=O)COc4ccccc4)C3c3ccccc3)cc2)C(=O)O)CCCC1 (single isomer, unassigned) [Example 317] | – | – | inhibition at 0.01 µM [2]: 17% |

| SMILES | IC50 [1, 3] [nM] | IC50 [2, 6] [nM] | IC50 [2, 4] [nM] | IC50 [1, 5] [nM] | further results |
| --- | --- | --- | --- | --- | --- |
| [N-]=[N+]=NCCC1(C(=O)N[C@@H](Cc2ccc(NC(=O)c3c(Cl)cccc3Cl)cc2)C(=O)O)CCCC1 [Example 58] | 0.58 | – | 47 | – | – |
| COCCCCC1(C(=O)N[C@@H](Cc2ccc(NC(=O)c3c(Cl)cccc3Cl)cc2)C(=O)O)CCCC1 [Example 250] | – | 28 | – | 0.32 | – |
| COC(=O)N(C)CCC1(C(=O)N[C@@H](Cc2ccc(NC(=O)c3c(Cl)cccc3Cl)cc2)C(=O)O)CCCC1 [Example 202, 4-[[(2,6-Dichlorophenyl)carbonyl]amino]-N-[[1-[2-[(methoxycarbonyl)(methyl)amino]ethyl]cyclopentyl]carbonyl]-L-phenylalanine] | 1 | 31 | – | – | – |
| O=C(NCCC1(C(=O)N[C@@H](Cc2ccc(NC(=O)c3c(Cl)cccc3Cl)cc2)C(=O)O)CCCC1)c1ccno1 [Example 158] | 5 | 124 | – | – | – |
| NCC(=O)NCCC1(C(=O)N[C@@H](Cc2ccc(NC(=O)c3c(Cl)cccc3Cl)cc2)C(=O)O)CCCC1 [Example 217, 4-[[(2,6-dichlorophenyl)carbonyl]amino]-N-[[1-[2-[(2-amino-1-oxoethyl)amino]ethyl]yclopentyl]carbonyl]-L-phenylalanine] | 2 | 211 | – | – | – |
| CC(=O)N(C)CCC1(C(=O)N[C@@H](Cc2ccc(NC(=O)c3c(Cl)cccc3Cl)cc2)C(=O)O)CCCC1 [Example 200, 4-[[(2,6-Dichlorophenyl)carbonyl]amino]-N-[[1-[2-[(acetyl)(methyl)amino]ethyl]cyclopentyl]carbonyl]-L-phenylalanine] | 0.81 | 19 | – | – | – |
| N#CCC1(C(=O)N[C@@H](Cc2ccc(NC(=O)c3c(Cl)cccc3Cl)cc2)C(=O)O)CCCC1 [Example 272] | 1 | – | 96 | – | – |
| Cn1nnnc1-c1ccc(CC2(C(=O)N[C@@H](Cc3ccc(NC(=O)c4c(Cl)cccc4Cl)cc3)C(=O)O)CCCC2)cc1 [Example 55] | – | 18.5 | – | 0.47 | – |
| COC(=O)NCCC1(C(=O)N[C@@H](Cc2ccc(NC(=O)c3c(Cl)cccc3Cl)cc2)C(=O)O)CCCC1 [Example 193] | 0.55 | 40 | – | – | – |
| CC(=O)NCCC1(C(=O)N[C@@H](Cc2ccc(N3C(=O)[C@@H](Cc4ccccc4)N(C(C)=O)C3c3ccccc3)cc2)C(=O)O)CCCC1 (single isomer, unassigned) [Example 311] | – | 3 | – | – | – |
